# Reference: US12582719B2, “Chimeric compounds and methods of managing neurological disorders or conditions” (Emory University, priority 2019, dated 2026)
# “Also recorded” adds a separate entry of the source.
# Experiments:
# [1] = tested on: depressive symptoms among GBM patients; experiment: Clinical trial of vorinostat in recurrent glioblastoma, depression assessed by IDS-SR; type: in vivo, human
# Description: A clinical trial was performed to evaluate vorinostat for the treatment of recurrent glioblastomas (GBM). Among the pleiotropic effects of HDAC inhibitors is the ability to attenuate inflammation, an action seen at concentrations lower than those required to slow cancer cell growth. GBM is frequently associated with neuroinflammation, which is thought to have pro-tumorigenic effects. […] Such changes are associated with recruitment of macrophages along a hypoxia-mediated chemotactic gradient. Macrophages recruited to hypoxic sites exert tumor-promoting effects through the expression of genes with mitogenic, angiogenic, and migration/invasion stimulating properties. Abrogating inflammatory changes associated with GBM might reduce or eliminate access to these tumor-promoting effects. Another intriguing effect of HDACis as anticancer agents might be their mood-enhancing, potentially anti-depressant, properties. In mice, decreased histone acetylation in key mood-relevant genes was found following chronic social defeat stress, a mouse model of depression. […]
# During the clinical trial, levels of depression were assessed using the Inventory of Depressive Symptomatology-Self Report (IDS-SR) to determine whether vorinostat alters the severity of depressive symptoms among GBM patients. […]
# [2] = tested on: xylene-induced ear edema; experiment: Xylene-induced mouse ear edema test; type: in vivo, mice; conditions: for anti-inflammation effect compared with the control group against xylene-induced ear edema: 10 mg/kg intraperitoneally, C57BL female mice, 2 h after xylene
# Description: Randomly selected C57BL adult female mice (6 weeks, ˜20 g) were divided into three groups of five mice in per group. Chimeric compounds (HM3a-R, HM3a-S, FIG. 2A) were dissolved in 10% dimethyl sulfoxide and 90% vehicle mixture. Vehicle formulation is 45% (2-hydroxypropyl)-β-cyclodextrin solution. And then, the compounds or vehicle were injected into mice as does 10 mg/kg and injection volume 100 μL intraperitoneally. After 30 min, mice treated 30 μL of xylene on the anterior and posterior surfaces of the right ear lobe, the left ear was considered as control. Two hours later, mice were sacrificed by using CO2 gas and both ears were cut off by using a cork borer with a diameter of 7 mm and weighed and the percentage of ear edema was calculated based on the weight of another ear without xylene.
# [3] = tested on: antidepressant-like activity in animal models; experiment: In vivo screening in animal models (antidepressant-like activity); conditions: compared with PDX-101 (belinostat)
# [4] = tested on: carrageenan-induced paw edema; experiment: Carrageenan-induced paw edema model; conditions: in vivo
# [5] = tested on: immobility in forced swim test; experiment: Forced swimming test (FST); type: in vivo, mice; conditions: for improvement in forced-swim test (antidepressant-like activity): C57BL female mice, 6 h after injection, versus control
# Description: The FST experiment was performed twice, the first experiment comparing the control group and the HM3a-R group, and the second experiment comparing the control group and the belinostat group. In the first FST, randomly selected C57BL adult female mice (6 weeks, 20 g) were divided into two groups of eight mice per group. And the second FST, randomly selected C57BL adult female mice (6 weeks, 20 g) were divided into two groups of five mice per group. Chimeric compounds, HM3a-R (FIG. 2A) was dissolved in 10% dimethyl sulfoxide and 90% vehicle mixture. Vehicle formulation is 45% (2-hydroxypropyl)-β-cyclodextrin solution. Then, HM3a-R or belinostat as dose 75 mg/kg or vehicle (for control) was injected into mice with 100 μL volume intraperitoneally. After 6 h, two 3-liter beakers were filled approximately with 2 L water at 25+/-0.5 degrees Celsius. Camcorder was placed, directly across from two beakers. Each pair of mice (i.e., one control mouse and one treated mouse) was placed into each beaker. Every trial was video recorded in this manner for 10 minutes. While the beakers were adjacent to each other, they were enclosed by cardboard boxes. The immobile times (between 2 and 8 minutes of 10-minute trial) for each pair of mice were counted by the person who was blinded to the identities of the control and treated mice pairs.
# [6] = Cellular toxicity; type: cell-based
# [7] = tested on: LPS-induced depressive behavior (immobility); experiment: Tail suspension test (TST) with lipopolysaccharide-induced depressive behavior; type: in vivo, mice
# Description: Randomly selected NIH Swiss adult male mice (7 weeks, ˜30 g) were divided into three groups of 5 mice in per group. LPS (Lipopolysaccharide) was administered as does 850 μg/kg in saline 100 μL intraperitoneally. After 1 h, chimeric compound (HM3a-R, FIG. 2A) or belinostat (Spectrum Pharmaceutical, Irvine, CA) was injected into mice as does 75 mg/kg in vehicle 100 μL intraperitoneally. Then the compounds were dissolved in 10% dimethyl sulfoxide and 90% vehicle mixture. Vehicle formulation is 45% (2-hydroxypropyl)-β-cyclodextrin solution. After 6 h and 24 h, tail suspension test was performed. Every tail-hanged mouse was video-recorded for 6 minutes. […] The tail suspension test (TST) was performed to assess antidepressant-like activity using lipopolysaccharide (LPS) which is an endotoxin that causes depressive behavior in mice. The antidepressant activities of HM3a-R and belinostat were compared with a control.
# [8] = tested on: histone H4 deacetylation; experiment: In vitro HDACI activity test (western blot, acetylated histone H4); type: cell-based; conditions: 9 L rat glioma cell line; for histone H4 acetylation: 5 μM, western blot
# Description: The HDACI activity chimeric compounds were tested by western blot using a specific antibody against acetylated histone H4, and 9 L rat glioma cell line. the inhibitory activity of HM3a-R was analyzed at different concentrations (1 μM or 5 μM) on histone H4 deacetylation, compared with established HDACi, entinostat, (pyridin-3-yl)methyl-4-(2-aminophenylcarbamoyl)benzylcarbamate, MS-275 (1 μM or 5 μM) as positive controls.
# [9] = tested on: antidepressant-like behavioral effects; conditions: behaviorally inactive dose of ACY-738 co-administered with sub-effective dose of citalopram; cited from earlier work
# [10] = 75 mg/kg intraperitoneally, LPS 850 μg/kg, NIH Swiss male mice
smiles,measurement,setting,value
O=C(CCCCCCC(=O)Nc1ccccc1)NO [vorinostat],GBM patients with improved IDS-SR scores,[1]; 7 days of vorinostat treatment,67%
same,side effect,[1]; most patients on treatment for more than 3 weeks,fatigue
"COC(=O)[C@@]1(c2ccc(Cl)c(Cl)c2)C[C@@H]1CNCc1ccc(C(=O)NO)cc1 [HM3a-S, (1S,2S)-methyl-1-(3,4-dichlorophenyl)-2-(((4-(hydroxycarbamoyl)benzyl)amino)methyl) cyclopropane-1-carboxylate]",anti-inflammation effect compared with the control group against xylene-induced ear edema,[2],23%
"COC(=O)[C@]1(c2ccc(Cl)c(Cl)c2)C[C@H]1CNCc1ccc(C(=O)NO)cc1 [HM3a-R, (1R,2R)-methyl-1-(3,4-dichlorophenyl)-2-(((4-(hydroxycarbamoyl)benzyl)amino)methyl) cyclopropane-1-carboxylate]",antidepressant-like activity and onset time in animal models,[3],excellent antidepressant-like activity and fast onset time
same,"effectiveness against carrageenan-induced paw edema, comparison of enantiomers",[4],more effective
same,duration of immobility in FST,"[5]; 75 mg/kg intraperitoneally, 6 h, P<0.05",significantly less duration of immobility
same,improvement in forced-swim test (antidepressant-like activity),[5]; 75 mg/kg intraperitoneally,23%
same,antidepressant-like activity in FST relative to belinostat,[5]; 23% vs. 12%,almost two-fold
same,cellular toxicity,[6],without cellular toxicity
same,anti-inflammation effect compared with the control group against xylene-induced ear edema,[2],48%
same,"effectiveness against ear inflammation, comparison of enantiomers",[2]; FIG. 3,more effective than HM3a-S
same,duration of immobility in TST at 6 h,[7]; [10],significantly reduced duration of immobility; also recorded: reduction in immobility
same,duration of immobility in TST at 24 h,"[7]; 75 mg/kg intraperitoneally, LPS 850 μg/kg, NIH Swiss male mice, 24 h",as effective as belinostat; also recorded: reduction in immobility
same,onset of antidepressant action in TST versus belinostat,"[7]; P<0.01, n=5",faster onset of antidepressant action
same,histone H4 acetylation,[8],increased histone H4 acetylation
"O=C(/C=C/c1cccc(S(=O)(=O)Nc2ccccc2)c1)NO [belinostat, reference compound]",improvement in forced-swim test (antidepressant-like activity),[5]; 75 mg/kg intraperitoneally,12%
same,duration of immobility in TST at 6 h,[7]; [10],didn't show any effect
"Nc1ccccc1NC(=O)c1ccc(CNC(=O)OCc2cccnc2)cc1 [MS-275, (pyridin-3-yl)methyl-4-(2-aminophenylcarbamoyl)benzylcarbamate]","inhibition of histone H4 deacetylation, comparison",[8]; 1 μM and 5 μM,higher inhibitions than HM3a-R
same,histone H4 acetylation,[8],increased histone H4 acetylation
O=C(NO)c1cnc(NC2(c3ccccc3)CC2)nc1 [ACY-738],effects comparable to a higher dose of citalopram administered alone,[9],~40 fold
